Experiments:
[1] = tested on: C6 glial cells; assay type: cell-based, rat
Experimental: Cell volume was assessed according to a Coulter principle using a flow cytometer (EPICS Elite ESP, Coulter Co., Miami, Fla.). Cell viability was also assessed under a flow cytometry by a propidium iodide exclusion test. The cell suspension of 10 ml was incubated at 37° C. fro 1 min after adding 2 μl of PBS containing 10 mg/ml propidium iodide. Mean cell volume was measured at a given time by introducing 350 μl of the cell suspension containing 2×10^4 cells into the flow cytometer. A baseline cell volume was obtained as mean of values measured before and after a 20-min incubation in control solution (pH 7.4). Thereafter, effects of acidosis (pH 6.2), lactacidosis (pH 6.2), or lactate (pH 7.4) were assessed with addition of (i) HCl, (ii) lactate, or (iii) lactate and Tris. After the cells were preincubated with control (pH 7.4), acidic (pH 6.2), or lactacidosis (pH 6.2 with lactate) solution (all isotonic), effects of a hypotonic challenge were also assessed by diluting the isotonic medium with a 30% volume of deionized distilled water.
Composition of control solution employed for cell volume measurements was as follows: 125 mM NaCl, 2.5 mM KCl, 2 mM CaCl2, 1.0 mM MgCl2, 10 mM glucose, 1.25 mM NaH2PO4, and 25 mM NaHCO3 (pH 7.4, in 95% air/5% CO2). […] Molar osmolality measured by a freezing-point depression osmometer (Vogel, Giessen, Germany) was, 300, 306, and 312 mosmol/kg-H2O. […]

[2] = tested on: C6 glial cells; assay: Whole-cell patch-clamp recording of VacA-induced currents; assay type: cell-based, rat; details: extracellular application, 100 μM, pH 7.4
Experimental: Using wide-tipped electrodes (to 2 MΩ), observation according to whole-cell recording (patch-clamp methods) was performed at room temperature (23-25° C.) as reported previously (Kubo M., Okada Y., “Volume-regulatory Cl^− channel currents in cultured human epithelial cells”, J. Physiol. 456, 351-371, 1992). Series resistance (<5 MΩ) was compensated (to 60% to 70%) to minimize voltage errors. Time course of current change was monitored by applying (every 15 s) alternating step pulses ([…]) from a holding potential of 0 to ±40 mV. To monitor voltage dependence of a whole-cell volume-sensitive current, step pulses (2-s duration) were applied from a prepotential of −60 mV (2-s duration) to test potentials of −60 to 100 mV in 20 mV increments after attaining steady-state activation of swelling-induced current. […] Instantaneous currents were recorded 2.5 ms after application of step pulses. […] Currents were recorded using an EPC-9 amplifier (HEKA, Lambrechet, Germany). […]
Cell swelling was induced by hypotonic (270 mosmol/kg H2O) solution in which mannitol was reduced to 40 mM. […] Permeability properties of VacA-induced channels were also assessed by using the following solutions: […]
Relative anion permeability was also assessed by replacing 115 mM extracellular Cl^− with aspartate. […]

Compound	volume regulation after lactacidosis-induced transient swelling in VacA-treated cells ([1]; 100 μM NPPB, VacA-treated cells)	effect on VacA-mediated current [2]	lactacidosis-induced persistent cell swelling ([1]; pretreatment with gramicidin 0.5 μM)
O=C(O)c1cc([N+](=O)[O-])ccc1NCCCc1ccccc1 [NPPB]	abolished	strongly inhibited	–
gramicidin	–	–	not prevented

Reference: patent US20060088552A1, “Method for inhibiting cell death, cell death inhibitor, and remedy for disease caused by cell death containing the cell death inhibitor” (priority 2002, published 2006)
